Assay results published in patent US5399371A, “Low calorie substitute for an edible oil” (Henkel Corporation, priority 1993, dated 1995).

How the values were obtained:
[1] = in vivo; cited from earlier work
[2] = rat, in vivo
[3] = test system: porcine pancreatic lipase; test: Lipase assay: resistance to hydrolysis by porcine pancreatic lipase; type: in vitro ADME; settings: pig, pH 8
Protocol: The polyglycerols in Examples III, IV, V, VI, VII, X, XI were subjected to digestion by porcine pancreatic lipase to test for resistance to hydrolysis. This test is an indicator of resistance to digestion within a mammalian digestive system.
Lipase Assay--The following materials and procedure were employed:
0.05M Tris-HCl buffered at pH=8.0 at 37° C.
60 mg porcine pancreatic lipase (Sigma Cat. No. L3126) to 5.0 ml of the above L-histidine solution.
Olive oil is used as a standard in these assays. The olive oil is from Sigma, cataloque number 01500.
1. Weigh 0.2000 grams of standard or sample into each of three 125 ml Erlenmeyer flasks.
2. To each flask add 8.0 ml of Salts solution, and 1.0 ml of the 0.05M Tris-HCl solution. Stopper each flask and place them in a shaker water bath equilibrated to 37° C. Commence agitation at 250 rpm. A New Brunswick shaker water bath was used throughout this study.
3. After the samples have equilibrated to temperature, 15-20 minutes, add 1.0 ml of enzyme to each of two flasks and 1.0 ml of histidine solution to the third flask as a blank. Stagger the addition to each flask by at least 30 seconds. The third flask in each set is the sample blank, which accounts for any free acids in the sample. Reactions should run both for 1 hour and 18 hours.
4. When reaction time has expired, add 50 ml of isopropanol to each flask. Prior to titration with 0.05-0.10N KOH in methanol, add a few drops of 1% phenolphthalein in ethanol to each flask. The exact concentration of .the potassium hydroxide solution should be standardized using KHP, potassium hydrogen phthalate. Titrate each flask to the pink endpoint and record the amount of base required to neutralize the sample. If solubility is a problem, warm sample slightly in a water bath prior to titration.
5. For olive oil, the % hydrolysis for each sample will be the mmoles KOH divided by the mmoles fatty acids available×(times) 100. An average molecular weight for olive oil of 880 g/mole can be used The corrected % hydrolysis is the % hydrolysis for the lipase-treated sample minus the % hydrolysis for the blank. For more heterogeneous samples (complex esters), the % hydrolysis can be calculated as the (AV/SAP Value)×100. The AV for each sample is (mmole KOH sample--mmole KOH blank) (56 mg KOH/mmole)/sample weight in grams. The saponification value can be determined using a method such as A.O.C.S. Official Method Cd 3-25. It is defined as the mg KOH required to saponify a gram of sample. The % hydrolysis can then be determined by taking a ratio of the measured AV after lipase treatment/SAP VALUE 100.

Substance | absorption / hydrolysis and metabolism in rat feeding studies [1] | % Digested in Rats [2] | Percent Hydrolysis 1 hr. [3] | Percent Hydrolysis 18 hrs. [3]
decaglycerol dodecaoleate | substantially absorbed | – | – | –
Polyglycerol polyoleate [Example VII] | – | 70% | 4.2% | 7.8%
Propoxylated polyglycerol polyoleate [Example IV] | – | 26% | 2.7% | 2.3%
Polyglycerol polyoleate [Example XI] | – | 50% | 0.5% | 5.3%
Propoxylated polyglycerol polytallowate [Example V] | – | 18% | 2.4% | 3.8%
polyglycerol polyoleate [Example III] | – | 52% | 2.7% | 4.4%
